From patent US9499550B2 (BRISTOL-MYERS SQUIBB COMPANY, priority 2012, dated 2016)
Like-named read-outs stand apart in the source and are kept apart here.

Experiments:
[1] = test system: HCV genotype 1b (Con1) replicon in HUH-7 cells; assay: HCV replicon luciferase reporter assay, genotype 1b; format: cell-based; conditions: Hepatitis C virus, Huh-7, 72 h, HCV genotype 1b replicon luciferase, 3 days incubation
Outline: (§1)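 Replicon inhibition for both genotypes was measured as Renilla luciferase signal (EnduRen, 7.5 μM final, 2 h) after 3-day, 37° C exposure of replicon-bearing HUH-7 cells in 4% FCS DMEM, 0.5% DMSO. The 1b construct carries S1179I; the 1a H77 construct carries P1496L and S2204I. Twenty-point, 3-fold dilutions were fitted four-parametrically for EC50, and CC50 was taken from multiplexed Cell Titer-Blue.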

[2] = test system: HCV genotype 1a (H77 strain) replicon in HUH-7 cells; assay: HCV replicon luciferase reporter assay, genotype 1a; format: cell-based; conditions: Hepatitis C virus, Huh-7, 72 h, HCV genotype 1a replicon luciferase, 3 days incubation
Outline: as §1

[3] = GETYPE1B, read-out: LE_1b (EC50, range)
[4] = GETYPE1A, read-out: LE_1a (EC50, range)

| SMILES | EC50 ([1]; read-out: LE_1b (EC50, range)) | EC50 ([2]; read-out: LE_1a (EC50, range)) | EC50 [1, 3] | EC50 [2, 4] | EC50 ([1]; GETYPE1B, read-out: LE_1b (EC50)) | EC50 ([2]; GETYPE1A, read-out: LE_1a (EC50)) |
| --- | --- | --- | --- | --- | --- | --- |
| CC[C@@H]1C[C@H](C)CC/C=C\[C@@H]2C[C@@]2(C(=O)NS(=O)(=O)C2CC2)NC(=O)[C@@H]2C[C@@H](Oc3ncc(C(N)=O)c4cc(OC)ccc34)CN2C(=O)[C@H]1NC(=O)OC(C)(C)C [Compound 4342, tert-butyl ((2R,6S,7R,9R,13aS,14aR,16aS,Z)-2-((4-carbamoyl-6-methoxyisoquinolin-1-yl)oxy)-14a-((cyclopropylsulfonyl)carbamoyl)-7-ethyl-9-methyl-5,16-dioxo-1,2,3,5,6,7,8,9,10,11,13a,14,14a,15,16,16a-hexadecahydrocyclopropa[e]pyrrolo[1,2-a][1,4]diazacyclopentadecin-6-yl)carbamate] | 35 to 620 nM | 5.01 to 35 nM |  |  |  |  |
| CC[C@@H]1C[C@H](C)CC/C=C\[C@@H]2C[C@@]2(C(=O)NS(=O)(=O)C2(C)CC2)NC(=O)[C@@H]2C[C@@H](Oc3ncc(C(N)=O)c4cc(OC)ccc34)CN2C(=O)[C@H]1NC(=O)OC(C)(C)C [Compound 4343, tert-butyl ((2R,6S,7R,9R,13aS,14aR,16aS,Z)-2-((4-carbamoyl-6-methoxyisoquinolin-1-yl)oxy)-7-ethyl-9-methyl-14a-(((1-methylcyclopropyl)sulfonyl)carbamoyl)-5,16-dioxo-1,2,3,5,6,7,8,9,10,11,13a,14,14a,15,16,16a-hexadecahydrocyclopropa[e]pyrrolo[1,2-a][1,4]diazacyclopentadecin-6-yl)carbamate] | 5.01 to 35 nM | 5.01 to 35 nM |  |  |  |  |
| CC[C@@H]1C[C@H](C)CC/C=C\[C@@H]2C[C@@]2(C(=O)NS(=O)(=O)C2(C)CC2)NC(=O)[C@@H]2C[C@@H](Oc3nccc4cc(OC)c(F)cc34)CN2C(=O)[C@H]1NC(=O)N1CCC(F)(F)CC1 [Compound 4344, (2R,6S,7R,9R,13aS,14aR,16aS,Z)-6-(4,4-difluoropiperidine-1-carboxamido)-7-ethyl-2-((7-fluoro-6-methoxyisoquinolin-1-yl)oxy)-9-methyl-N-((1-methylcyclopropyl)sulfonyl)-5,16-dioxo-1,2,3,5,6,7,8,9,10,11,13a,14,14a,15,16,16a-hexadecahydrocyclopropa[e]pyrrolo[1,2-a][1,4]diazacyclopentadecine-14a-carboxamide] | 1.01 to 5 nM | 1.01 to 5 nM |  |  |  |  |
| CC[C@@H]1C[C@H](C)CC/C=C\[C@@H]2C[C@@]2(C(=O)NS(=O)(=O)C2CC2)NC(=O)[C@@H]2C[C@@H](Oc3ncc(C(N)=O)c4cc(OC)ccc34)CN2C(=O)[C@H]1NC(=O)OC(C)(C)C(F)(F)F [Compound 4345] |  |  | 35 to 620 nM | 5.01 to 35 nM |  |  |
| CCOc1ccc2nc(C(F)(F)F)c(O[C@@H]3C[C@H]4C(=O)N[C@]5(C(=O)NS(=O)(=O)C6(C)CC6)C[C@H]5/C=C\CC[C@@H](C)C[C@@H](C)[C@H](NC(=O)OC(C)(C)C)C(=O)N4C3)nc2c1 [Compound 4346, tert-butyl ((2R,6S,7R,9R,13aS,14aR,16aS,Z)-2-((7-ethoxy-3-(trifluoromethyl)quinoxalin-2-yl)oxy)-7,9-dimethyl-14a-(((1-methylcyclopropyl)sulfonyl)carbamoyl)-5,16-dioxo-1,2,3,5,6,7,8,9,10,11,13a,14,14a,15,16,16a-hexadecahydrocyclopropa[e]pyrrolo[1,2-a][1,4]diazacyclopentadecin-6-yl)carbamate] | 0.1 to 0.5 nM | 0.51 to 1 nM |  |  |  |  |
| CCOc1ccc2nc(C(F)(F)F)c(O[C@@H]3C[C@H]4C(=O)N[C@]5(C(=O)NS(=O)(=O)C6(C)CC6)C[C@H]5/C=C\CC[C@H](C)C[C@@H](C)[C@H](NC(=O)OC(C)(C)C)C(=O)N4C3)nc2c1 [Compound 4347, tert-butyl ((2R,6S,7R,9S,13aS,14aR,16aS,Z)-2-((7-ethoxy-3-(trifluoromethyl)quinoxalin-2-yl)oxy)-7,9-dimethyl-14a-(((1-methylcyclopropyl)sulfonyl)carbamoyl)-5,16-dioxo-1,2,3,5,6,7,8,9,10,11,13a,14,14a,15,16,16a-hexadecahydrocyclopropa[e]pyrrolo[1,2-a][1,4]diazacyclopentadecin-6-yl)carbamate] | 1.01 to 5 nM | 5.01 to 35 nM |  |  |  |  |
| CCOc1ccc2nc(C(F)(F)F)c(O[C@@H]3C[C@H]4C(=O)N[C@]5(C(=O)NS(=O)(=O)C6(C)CC6)C[C@H]5/C=C\CC[C@@H](C)C[C@@H](C)[C@H](NC(=O)OC(C)(C)C(F)(F)F)C(=O)N4C3)nc2c1 [Compound 4348] |  |  | 0.1 to 0.5 nM | 0.51 to 1 nM |  |  |
| CCOc1ccc2nc(C(F)(F)F)c(O[C@@H]3C[C@H]4C(=O)N[C@]5(C(=O)NS(=O)(=O)C6(C)CC6)C[C@H]5/C=C\CC[C@H](C)C[C@@H](C)[C@H](NC(=O)OC(C)(C)C(F)(F)F)C(=O)N4C3)nc2c1 [Compound 4349] |  |  | 1.01 to 5 nM | 5.01 to 35 nM |  |  |
| CC[C@@H]1C[C@H](C)CC/C=C\[C@@H]2C[C@@]2(C(=O)NS(=O)(=O)C2(C)CC2)NC(=O)[C@@H]2C[C@@H](Oc3nc4cc(OC(C)C)ccc4nc3C(F)(F)F)CN2C(=O)[C@H]1NC(=O)OC(C)(C)C(F)(F)F [Compound 4350] |  |  | 0.51 to 1 nM | 1.01 to 5 nM | 0.88 nM | 1.49 nM |
| COc1cc2nc(C(F)(F)F)c(OC)nc2cc1O[C@@H]1C[C@H]2C(=O)N[C@]3(C(=O)NS(=O)(=O)C4(C)CC4)C[C@H]3/C=C\CC[C@@H](C)C[C@@H](C)[C@H](NC(=O)OC(C)(C)C)C(=O)N2C1 [Compound 4351, tert-butyl ((2R,6S,7R,9R,13aS,14aR,16aS,Z)-2-((3,7-dimethoxy-2-(trifluoromethyl)quinoxalin-6-yl)oxy)-7,9-dimethyl-14a-(((1-methylcyclopropyl)sulfonyl)carbamoyl)-5,16-dioxo-1,2,3,5,6,7,8,9,10,11,13a,14,14a,15,16,16a-hexadecahydrocyclopropa[e]pyrrolo[1,2-a][1,4]diazacyclopentadecin-6-yl)carbamate] | 1.01 to 5 nM | 5.01 to 35 nM |  |  |  |  |
| COc1cc2nc(C(F)(F)F)c(OC)nc2cc1O[C@@H]1C[C@H]2C(=O)N[C@]3(C(=O)NS(=O)(=O)C4(C)CC4)C[C@H]3/C=C\CC[C@H](C)C[C@@H](C)[C@H](NC(=O)OC(C)(C)C)C(=O)N2C1 [Compound 4352, tert-butyl ((2R,6S,7R,9S,13aS,14aR,16aS,Z)-2-((3,7-dimethoxy-2-(trifluoromethyl)quinoxalin-6-yl)oxy)-7,9-dimethyl-14a-(((1-methylcyclopropyl)sulfonyl)carbamoyl)-5,16-dioxo-1,2,3,5,6,7,8,9,10,11,13a,14,14a,15,16,16a-hexadecahydrocyclopropa[e]pyrrolo[1,2-a][1,4]diazacyclopentadecin-6-yl)carbamate] | 35 to 620 nM | 35 to 620 nM |  |  |  |  |
| COc1cc2nc(C(F)(F)F)c(OC)nc2cc1O[C@@H]1C[C@H]2C(=O)N[C@]3(C(=O)NS(=O)(=O)C4(C)CC4)C[C@H]3/C=C\CC[C@@H](C)C[C@@H](C)[C@H](NC(=O)OC(C)(C)C(F)(F)F)C(=O)N2C1 [Compound 4353] |  |  | 1.01 to 5 nM | 5.01 to 35 nM |  |  |
| COc1cc2nc(C(F)(F)F)c(OC)nc2cc1O[C@@H]1C[C@H]2C(=O)N[C@]3(C(=O)NS(=O)(=O)C4(C)CC4)C[C@H]3/C=C\CC[C@H](C)C[C@@H](C)[C@H](NC(=O)OC(C)(C)C(F)(F)F)C(=O)N2C1 [Compound 4354] |  |  | 35 to 620 nM | 35 to 620 nM |  |  |
| CC[C@@H]1C[C@H](C)CC/C=C\[C@@H]2C[C@@]2(C(=O)NS(=O)(=O)C2(C)CC2)NC(=O)[C@@H]2C[C@@H](Oc3ncc(OC)c4ccc(F)cc34)CN2C(=O)[C@H]1NC(=O)c1ccn(C)n1 [Compound 4356, (2R,6S,7R,9R,13aS,14aR,16aS,Z)-7-ethyl-2-((7-fluoro-4-methoxyisoquinolin-1-yl)oxy)-9-methyl-6-(1-methyl-1H-pyrazole-3-carboxamido)-N-((1-methylcyclopropyl)sulfonyl)-5,16-dioxo-1,2,3,5,6,7,8,9,10,11,13a,14,14a,15,16,16a-hexadecahydrocyclopropa[e]pyrrolo[1,2-a][1,4]diazacyclopentadecine-14a-carboxamide] | 0.1 to 0.5 nM | 0.51 to 1 nM |  |  |  |  |
| CC[C@@H]1C[C@H](C)CC/C=C\[C@@H]2C[C@@]2(C(=O)NS(=O)(=O)C2(C)CC2)NC(=O)[C@@H]2C[C@@H](Oc3ncc(OC)c4ccc(F)cc34)CN2C(=O)[C@H]1NC(=O)O[C@H](C)C(F)(F)F [Compound 4357, (R)-1,1,1-trifluoropropan-2-yl ((2R,6S,7R,9R,13aS,14aR,16aS,Z)-7-ethyl-2-((7-fluoro-4-methoxyisoquinolin-1-yl)oxy)-9-methyl-14a-(((1-methylcyclopropyl)sulfonyl)carbamoyl)-5,16-dioxo-1,2,3,5,6,7,8,9,10,11,13a,14,14a,15,16,16a-hexadecahydrocyclopropa[e]pyrrolo[1,2-a][1,4]diazacyclopentadecin-6-yl)carbamate] | 0.51 to 1 nM | 1.01 to 5 nM |  |  |  |  |
| CCOc1ccc2nc(O)c(O[C@@H]3C[C@H]4C(=O)N[C@]5(C(=O)NS(=O)(=O)C6(C)CC6)C[C@H]5/C=C\CC[C@@H](C)C[C@@H](CC)[C@H](NC(=O)OC(C)(C)C)C(=O)N4C3)nc2c1 [Compound 4361, tert-butyl ((2R,6S,7R,9R,13aS,14aR,16aS,Z)-2-((7-ethoxy-3-hydroxyquinoxalin-2-yl)oxy)-7-ethyl-9-methyl-14a-(((1-methylcyclopropyl)sulfonyl)carbamoyl)-5,16-dioxo-1,2,3,5,6,7,8,9,10,11,13a,14,14a,15,16,16a-hexadecahydrocyclopropa[e]pyrrolo[1,2-a][1,4]diazacyclopentadecin-6-yl)carbamate] | 5.01 to 35 nM | 35 to 620 nM |  |  |  |  |
